The values below come from PubChem BioAssay AID2739 (Broad Institute, 2010).

Records with an inconclusive call do not appear. Active and inactive are the calls of the source.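 Rule for the calls: active = IC50 no more than tenfold above the highest tested concentration; inconclusive = flat fit with activity between 30% and 70%, or an invalid poor fit; inactive = IC50 beyond tenfold over the top concentration.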

Sequence of Zinc finger protein mex-5 (Caenorhabditis elegans) (Q9XUB2 whole entry, looked up): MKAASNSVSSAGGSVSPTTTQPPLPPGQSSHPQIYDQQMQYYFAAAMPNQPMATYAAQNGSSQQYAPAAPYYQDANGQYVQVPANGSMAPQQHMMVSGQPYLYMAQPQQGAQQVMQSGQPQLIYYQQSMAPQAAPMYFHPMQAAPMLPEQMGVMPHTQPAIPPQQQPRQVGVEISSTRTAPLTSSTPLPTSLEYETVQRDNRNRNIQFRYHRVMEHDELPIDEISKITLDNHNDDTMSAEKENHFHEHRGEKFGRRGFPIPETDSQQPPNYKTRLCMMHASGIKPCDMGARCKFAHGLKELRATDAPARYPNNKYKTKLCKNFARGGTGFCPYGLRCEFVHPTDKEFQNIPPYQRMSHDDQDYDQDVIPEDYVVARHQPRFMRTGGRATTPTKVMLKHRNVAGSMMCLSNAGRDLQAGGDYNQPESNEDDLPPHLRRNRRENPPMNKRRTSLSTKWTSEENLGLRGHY

The test concerns the target Zinc finger protein mex-5 (Caenorhabditis elegans) (UniProt Q9XUB2). The test is described as follows: blockers of C. elegans MEX-5/TCR-2 RNA interaction – biochemical, fluorescence polarization, MBP-MEX-5, FITC-TCR2 RNA, dose response (AID 2739). The following applies: MBP-MEX-5 / FITC-TCR2 RNA fluorescence polarization, 1 h.
For orientation: IC50 means the concentration that inhibits the measured activity by half. As to `Cc1nc2ccccc2c(=O)n1/N=C/c1ccc(O)c(O)c1O`, the IC50 was 0.924 µM.
For `CC1=C(C(=O)OCc2ccccc2)C(c2ccccc2[N+](=O)[O-])NC(=O)N1C` (stereo not drawn) the value was 32.4 µM; for `Cc1cnc(C(=O)NNC(=O)c2ccc(Br)cc2)cn1`, 1.07 µM.
For `CCc1ccc(C(=O)NNC(=O)c2ccc(=O)n(C)n2)cc1` the value was 9.25 µM; for `Cc1ccc(N2C(=O)NC(=O)/C(=C\c3cc(C)n(-c4ccc(C(=O)O)cc4)c3C)C2=O)cc1`, > 135 µM (inactive).
As to `CCOCCCNC(=O)CCC(=O)NNc1nc2ccccc2c2nc(C)nn12`, the IC50 is 2.28 µM.
Then `Cc1nc(N=Nc2ccc(O)cc2)n[nH]1`, with 16.1 µM.
Regarding `Cc1ncc(CO)c(/C=N/NC(=O)c2cc(Br)ccc2O)c1O`, the IC50 was 7.89 µM.
Take `CCN(CC)c1ccc(/C=C2\C(=O)NC(=S)N(c3ccc(OC)cc3OC)C2=O)o1`: the IC50 is > 135 µM (inactive).
Then `O=c1c(O)cccc2cc(O)c(O)c(O)c12`, with 2.03 µM.
For the molecule `CCCCN(C)C(=O)CCC(=O)NNc1nc2ccccc2c2nc(C)nn12`, the IC50 was 4.17 µM.
Then `NC(CO)C(=O)NNCc1ccc(O)c(O)c1O` (stereo not drawn), with > 135 µM (inactive).
Then `CCc1ccccc1N1C(=O)/C(=C\c2ccc(N3CCN(C)CC3)o2)C(=O)NC1=S`, with > 135 µM (inactive).
Then `CCN(CC)c1ccc(/C=C2\C(=O)NC(=S)N(C)C2=O)o1`, with > 135 µM (inactive); and `COc1ccc(-c2cn[nH]c2-c2ccc(OCC(=O)NN)cc2O)cc1OC`, with 1.57 µM; and `N=c1c(C(=O)NC2CCCCC2)cc2c(=O)n3ccccc3nc2n1Cc1ccc(F)cc1`, with > 135 µM (inactive).
Take `CCOC(=O)c1cc(CC)sc1/N=C/c1c(O)[nH]c(=S)[nH]c1=O`: the IC50 is > 350 µM (inactive).
Then `COCCCNC(=O)CCC(=O)NNc1nc2ccccc2c2nc(C)nn12`, with 1.64 µM; and `N=c1c(C(=O)NC2CCCCC2)cc2c(=O)n3ccccc3nc2n1Cc1cccnc1`, with > 350 µM (inactive); and `Cn1ncc2c(NNC(=O)Cc3ccccc3)ncnc21`, with 1.31 µM.
As to `CCOC(=O)C1CCN(C(=O)CCC(=O)NNc2nc3ccccc3c3nc(C)nn23)CC1`, the IC50 was 2.39 µM.
For `O=C(NNC(=O)c1ccccc1[N+](=O)[O-])c1csc(N2CCOCC2)n1` the value was 1.31 µM.
For `COCCNC(=O)CCC(=O)NNc1nc2ccccc2c2nc(C)nn12` the value was 1.49 µM.
